Data: patent US20230173089A1, “Q-ER PEPTIDE” (Biotempt B.V., priority 2019, published 2023)

Tests used:
[1] = tested on: mTOR; details: cited from earlier work; for activity as activators of mTOR or inhibitors of autophagy compared with other amino acids: alone or in combination
[2] = tested on: Human monocytes; test: monocyte chemotaxis in 48-well microchemotaxis chamber; format: cell-based; details: for monocyte chemotaxis in the presence of glucose, fructose, or mannose: control sugars; for monocyte chemotaxis in the presence of lactose: lactose dissociates the 67-kD ERC; for chemotactic activity at a stated concentration: 0.1 mmol/L; for induction of monocyte chemotaxis: 10-9 to 10-5 mol/L; for peptide derived chemotactic activity under competition with VGVAPG: competition with SEQ ID NO:19; for chemotactic response to f-MLF after preincubation of monocytic cells with peptide: preincubation 30 minutes; for chemotactic potency compared with f-MLF: same concentration of f-MLF
Procedure: Human monocytes are isolated from freshly drawn blood of healthy volunteers using serial […] gradient centrifugation, as described elsewhere. Cells are cultured for 16 hours in RPMI-1640 media supplemented with 0.5% human serum to become quiescent after isolation. Purity of the cells is >95% as determined by flow cytometry analysis. Monocyte chemotaxis is assayed in a 48-well microchemotaxis chamber (Neuroprobe, Gaithersburg, MD) in serum-free media. Wells in the upper and lower chamber are separated by a polyvinylpyrrolidone-free polycarbonate membrane (pore size 5 µm; Costar). Freshly isolated monocytes at a density of 5 × 10^5/mL are incubated for 2.5 hours with recombinant C-peptide (Sigma), before migrated cells on the bottom face of the filter are stained and counted under the light microscope. Maximal chemotactic activity is measured with […] N -formyl-methionyl-leucyl-phenylalanine (f-MLF; Sigma Chemical Co), and checkerboard analysis is used to distinguish chemotaxis from chemokinesis.
Chemotaxis is tested with SEQ ID NO:12 ([…]), SEQ ID NO:11 ([…]), SEQ ID NO:24 ([…]) or SEQ ID NO:25 ([…]). Exposure of cells to lactose is used to specifically dissociate the 67-kD ERC. Controls for lactose included glucose, fructose, and mannose, none of which affect the 67-kD ERC. In each case, monocytes cells are exposed to the relevant concentrations of SEQ ID NO:12 ([…]), SEQ ID NO:11 ([…]), SEQ ID NO:24 ([…]) or SEQ ID NO:25 ([…]) (10-9 to 10-5 mol/L), for 30 minutes before the chemotaxis assays are started. […] Monocytes in the upper wells of the assay chamber are exposed to varying concentrations of SEQ ID NO:12 ([…]), SEQ ID NO:11 ([…]), SEQ ID NO:24 ([…]) or SEQ ID NO:25 ([…]) for 30 minutes before stimulation by SEQ ID NO:19 (VGVAPG) (0.1 nmol/L - 10 nmol/L) in the lower wells. […] SEQ ID NO:12 ([…]), SEQ ID NO:11 ([…]), SEQ ID NO:24 ([…]), or SEQ ID NO:25 ([…]) derived chemotactic activity is eliminated by competition with Val-Gly-Val-[…]-Pro-Gly (SEQ ID NO:19 (VGVAPG)), a repetitive peptide found in human elastin that binds to cellular elastin receptors. Monocyte chemotaxis in response to both SEQ ID NO:19 (VGVAPG) or SEQ ID NO:12 ([…]), SEQ ID NO:11 ([…]), SEQ ID NO:24 ([…]), or SEQ ID NO:25 ([…]) is abolished in the presence of lactose, a galactosugar that specifically dissociates the 67-kD ERC, but it is unaffected by glucose, fructose, or mannose.

NCC(=O)O [L-Glycine]
activity as activators of mTOR or inhibitors of autophagy compared with other amino acids [1]: more potent
amino-acid-stimulated mTOR complex 1 activation [1]: improves

VGVAPG (Immunomodulatory peptide) [SEQ ID NO:19, reference compound]
monocyte migration ([2]; 0.1 nmol/L - 10 nmol/L in the lower wells): concentration-dependent increase
monocyte chemotaxis in the presence of glucose, fructose, or mannose [2]: unaffected
monocyte chemotaxis in the presence of lactose [2]: abolished

CSCC[C@H](N)C(=O)O [L-Methionine]
activity as activators of mTOR or inhibitors of autophagy compared with other amino acids [1]: no or opposite effects

N=C(N)NCCC[C@H](N)C(=O)O [L-Arginine]
activity as activators of mTOR or inhibitors of autophagy compared with other amino acids [1]: more potent

N[C@@H](Cc1ccc(O)cc1)C(=O)O [L-Tyrosine]
activity as activators of mTOR or inhibitors of autophagy compared with other amino acids [1]: no or opposite effects

C[C@@H](O)[C@H](N)C(=O)O [L-Threonine]
activity as activators of mTOR or inhibitors of autophagy compared with other amino acids [1]: no or opposite effects

N[C@@H](CO)C(=O)O [L-Serine]
activity as activators of mTOR or inhibitors of autophagy compared with other amino acids [1]: no or opposite effects

C[C@H](N)C(=O)O [L-Alanine]
activity as activators of mTOR or inhibitors of autophagy compared with other amino acids [1]: more potent
mTOR associated autophagic inhibitory effects on human cells [1]: most prominent

CC(C)[C@H](N)C(=O)O [L-Valine]
activity as activators of mTOR or inhibitors of autophagy compared with other amino acids [1]: more potent

NCCCC[C@H](N)C(=O)O [L-Lysine]
activity as activators of mTOR or inhibitors of autophagy compared with other amino acids [1]: no or opposite effects

CC[C@H](C)[C@H](N)C(=O)O [L-Isoleucine]
activity as activators of mTOR or inhibitors of autophagy compared with other amino acids [1]: more potent

LQGVLPGQ (Immunomodulatory peptide) [SEQ ID NO:12]
chemotactic activity at a stated concentration [2]: good activity
induction of monocyte chemotaxis [2]: induce chemotaxis in a concentration-dependent manner
peptide derived chemotactic activity under competition with VGVAPG [2]: eliminated
monocyte chemotaxis in the presence of glucose, fructose, or mannose [2]: unaffected
monocyte chemotaxis in the presence of lactose [2]: abolished
chemotactic response to f-MLF after preincubation of monocytic cells with peptide [2]: does not alter
chemotactic potency compared with f-MLF [2]: considerably more potent

CC(C)C[C@H](N)C(=O)O [L-Leucine]
activity as activators of mTOR or inhibitors of autophagy compared with other amino acids [1]: more potent
mTOR associated autophagic inhibitory effects on human cells [1]: most prominent

LQGVQPGQ (Immunomodulatory peptide) [SEQ ID NO:24]
chemotactic activity at a stated concentration [2]: good activity
induction of monocyte chemotaxis [2]: induce chemotaxis in a concentration-dependent manner
peptide derived chemotactic activity under competition with VGVAPG [2]: eliminated
monocyte chemotaxis in the presence of glucose, fructose, or mannose [2]: unaffected
monocyte chemotaxis in the presence of lactose [2]: abolished
chemotactic response to f-MLF after preincubation of monocytic cells with peptide [2]: does not alter
chemotactic potency compared with f-MLF [2]: considerably more potent

N[C@@H](Cc1ccccc1)C(=O)O [L-Phenylalanine]
activity as activators of mTOR or inhibitors of autophagy compared with other amino acids [1]: no or opposite effects

AQGVLPGQ (Immunomodulatory peptide) [SEQ ID NO:11]
chemotactic activity at a stated concentration [2]: good activity
induction of monocyte chemotaxis [2]: induce chemotaxis in a concentration-dependent manner
peptide derived chemotactic activity under competition with VGVAPG [2]: eliminated
monocyte chemotaxis in the presence of glucose, fructose, or mannose [2]: unaffected
monocyte chemotaxis in the presence of lactose [2]: abolished
chemotactic response to f-MLF after preincubation of monocytic cells with peptide [2]: does not alter
chemotactic potency compared with f-MLF [2]: considerably more potent

O=C(O)[C@@H]1CCCN1 [L-Proline]
activity as activators of mTOR or inhibitors of autophagy compared with other amino acids [1]: more potent
mTOR associated autophagic inhibitory effects on human cells [1]: most prominent

AQGVQPGQ (Immunomodulatory peptide) [SEQ ID NO:25]
chemotactic activity at a stated concentration [2]: good activity
induction of monocyte chemotaxis [2]: induce chemotaxis in a concentration-dependent manner
peptide derived chemotactic activity under competition with VGVAPG [2]: eliminated
monocyte chemotaxis in the presence of glucose, fructose, or mannose [2]: unaffected
monocyte chemotaxis in the presence of lactose [2]: abolished
chemotactic response to f-MLF after preincubation of monocytic cells with peptide [2]: does not alter
chemotactic potency compared with f-MLF [2]: considerably more potent

N[C@@H](CCC(=O)O)C(=O)O [L-Glutamic Acid]
activity as activators of mTOR or inhibitors of autophagy compared with other amino acids [1]: no or opposite effects
